US20070117770A1, “Human ribosomal DNA (rDNA) and ribosomal RNA (rRNA) nucleic acids and uses thereof” (Cylene Pharmaceuticals, Inc., priority 2005, published 2007)

Legend:
Assay in all cases: Protein kinase inhibition assay
Format in all cases: biochemical
CDK5/p25(h) = CDK5/p25(h) (Homo sapiens, UniProt Q00535); conditions: read-out: percent residual activity of CDK5/p25(h)
Protocol: (§1) Certain compounds were tested for activity in protein kinase inhibition assays. All substrates were dissolved and diluted to working stocks in de-ionized water, apart from histone H1 (10× working stock in 20 mM MOPS pH 7.0), PDKtide (10× working stock in 50 mM Tris pH 7.0) ATF2 (which is typically stored at a 20× working stock in 50 mM Tris pH 7.5, 150 mM NaCl, 0.1 mM EGTA, 0.03% Brij-35, 50% glycerol, 1 mM benzamidine, 0.2 mM PMSF and 0.1% R-mercaptoethanol), KKLNRTLSFAEPG (SEQ ID NO:203) and RRRLSFAEPG (SEQ ID NO:204) (50 mM HEPES pH 7.4) and GGEEEEYFELVKKKK (SEQ ID NO:205) (20 mM MOPS pH 7.0). All kinases were pre-diluted to a 10× working concentration prior to addition into the assay. The composition of the dilution buffer for each kinase is detailed below.
(§2) In a final reaction volume of 25 μl, CDK5/p25 (h) (5-10 mU) is incubated with 8 mM MOPS pH 7.0, 0.2 mM EDTA, 0.1 mg/ml histone H1, 10 mM MgAcetate and [y-33P-ATP] (specific activity approx. 500 cpm/pmol, concentration as required). The reaction is initiated by the addition of the MgATP mix. After incubation for 40 minutes at room temperature, the reaction is stopped by the addition of 5 μl of a 3% phosphoric acid solution. 10 μl of the reaction is then spotted onto a P30 filtermat and washed three times for 5 minutes in 75 mM phosphoric acid and once in methanol prior to drying and scintillation counting.

CDK7/cyclinH/MAT1(h) = CDK7/cyclinH/MAT1(h) (Homo sapiens, UniProt P50613); conditions: read-out: percent residual activity of CDK7/cyclinH/MAT1(h)
Protocol: as §1
as §2, with “CDK7/cyclinH/MAT1” for “CDK5/p25”, “500 μM peptide,” for “0.1 mg/ml histone H1,”

EGFR(L861Q)(h) = EGFR(L861Q)(h) (Homo sapiens, UniProt P00533, L861Q); conditions: read-out: percent residual activity of EGFR(L861Q)(h)
Protocol: as §1
as §2, with “EGFR (L861 Q)” for “CDK5/p25”, “poly(Glu, Tyr) 4:1,” for “histone H1,”, “[gamma-33P-ATP]” for “[y-33P-ATP]”, “Filtermat A” for “P30 filtermat”

Flt1(h) = Flt1(h) (Homo sapiens, UniProt P17948); conditions: read-out: percent residual activity of Flt1(h)
Protocol: as §1
as §2, with “Flt1” for “CDK5/p25”, “250 μM KKKSPGEYVNIEFG (SEQ ID NO:207),” for “0.1 mg/ml histone H1,”, “[gamma-33P-ATP]” for “[y-33P-ATP]”

Rsk3(h) = Rsk3(h) (Homo sapiens, UniProt Q15349); conditions: read-out: percent residual activity of Rsk3(h)
Protocol: as §1
as §2, with “Rsk3” for “CDK5/p25”, “30 μM KKKNRTLSVA (SEQ ID NO:212),” for “0.1 mg/ml histone H1,”, “[gamma-33P-ATP]” for “[y-33P-ATP]”

SGK(h) = SGK(h) (Homo sapiens, UniProt O00141); conditions: read-out: percent residual activity of SGK(h)
Protocol: as §1
as §2, with “SGK” for “CDK5/p25”, “30 μM GRPRTSSFAEGKK (SEQ ID NO:226),” for “0.1 mg/ml histone H1,”, “[gamma-33P-ATP]” for “[y-33P-ATP]”

Chain of EGFR(L861Q)(h) (P00533 25-1210 L861Q): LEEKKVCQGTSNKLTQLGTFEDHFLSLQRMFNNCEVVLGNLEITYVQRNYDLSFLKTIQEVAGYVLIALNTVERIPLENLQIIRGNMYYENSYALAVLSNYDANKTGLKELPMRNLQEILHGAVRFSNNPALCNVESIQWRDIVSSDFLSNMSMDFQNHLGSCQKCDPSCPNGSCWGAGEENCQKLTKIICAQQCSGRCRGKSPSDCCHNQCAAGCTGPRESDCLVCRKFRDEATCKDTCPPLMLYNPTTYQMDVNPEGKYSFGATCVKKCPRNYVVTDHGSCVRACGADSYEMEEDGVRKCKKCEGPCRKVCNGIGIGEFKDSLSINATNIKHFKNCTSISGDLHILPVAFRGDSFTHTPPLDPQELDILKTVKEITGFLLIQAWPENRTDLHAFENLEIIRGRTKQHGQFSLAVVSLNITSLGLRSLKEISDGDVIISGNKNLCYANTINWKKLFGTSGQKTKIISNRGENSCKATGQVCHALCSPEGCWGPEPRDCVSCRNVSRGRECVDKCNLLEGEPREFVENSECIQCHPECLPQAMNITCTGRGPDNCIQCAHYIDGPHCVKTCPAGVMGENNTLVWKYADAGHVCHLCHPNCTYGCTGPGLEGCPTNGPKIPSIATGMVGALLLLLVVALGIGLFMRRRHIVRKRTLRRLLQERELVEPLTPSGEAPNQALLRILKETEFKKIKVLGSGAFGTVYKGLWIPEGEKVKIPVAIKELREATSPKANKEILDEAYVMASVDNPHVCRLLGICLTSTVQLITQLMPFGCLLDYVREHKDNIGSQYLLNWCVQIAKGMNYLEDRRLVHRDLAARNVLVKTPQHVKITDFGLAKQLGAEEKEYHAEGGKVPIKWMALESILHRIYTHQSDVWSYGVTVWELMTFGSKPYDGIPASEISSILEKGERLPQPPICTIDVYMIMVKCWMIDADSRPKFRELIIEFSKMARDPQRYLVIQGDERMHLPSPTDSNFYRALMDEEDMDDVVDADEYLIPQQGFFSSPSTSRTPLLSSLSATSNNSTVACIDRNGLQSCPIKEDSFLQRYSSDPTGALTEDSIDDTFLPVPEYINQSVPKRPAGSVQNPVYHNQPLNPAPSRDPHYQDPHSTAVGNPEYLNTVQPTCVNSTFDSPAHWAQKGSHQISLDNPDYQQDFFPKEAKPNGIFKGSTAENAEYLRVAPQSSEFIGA
Chain of Rsk3(h) (Q15349 whole entry): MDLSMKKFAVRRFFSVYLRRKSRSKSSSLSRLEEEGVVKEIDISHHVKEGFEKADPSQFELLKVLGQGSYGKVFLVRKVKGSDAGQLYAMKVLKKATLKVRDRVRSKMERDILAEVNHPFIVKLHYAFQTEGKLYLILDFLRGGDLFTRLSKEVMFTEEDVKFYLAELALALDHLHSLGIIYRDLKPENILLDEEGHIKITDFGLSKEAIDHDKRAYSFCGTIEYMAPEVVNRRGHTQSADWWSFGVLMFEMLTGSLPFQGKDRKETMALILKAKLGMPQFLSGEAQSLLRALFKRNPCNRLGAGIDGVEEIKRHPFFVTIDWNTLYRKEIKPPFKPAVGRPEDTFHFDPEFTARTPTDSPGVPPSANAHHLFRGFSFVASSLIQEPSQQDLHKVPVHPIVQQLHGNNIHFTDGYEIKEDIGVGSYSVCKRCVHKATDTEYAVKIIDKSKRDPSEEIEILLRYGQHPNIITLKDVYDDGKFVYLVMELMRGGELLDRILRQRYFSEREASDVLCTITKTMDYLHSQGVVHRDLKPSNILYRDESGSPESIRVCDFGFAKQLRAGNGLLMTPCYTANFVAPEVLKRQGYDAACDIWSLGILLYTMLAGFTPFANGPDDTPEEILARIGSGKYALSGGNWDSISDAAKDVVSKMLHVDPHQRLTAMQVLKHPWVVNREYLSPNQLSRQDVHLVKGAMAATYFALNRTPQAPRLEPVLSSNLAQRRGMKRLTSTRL
Chain of CDK5/p25(h) (Q00535 whole entry): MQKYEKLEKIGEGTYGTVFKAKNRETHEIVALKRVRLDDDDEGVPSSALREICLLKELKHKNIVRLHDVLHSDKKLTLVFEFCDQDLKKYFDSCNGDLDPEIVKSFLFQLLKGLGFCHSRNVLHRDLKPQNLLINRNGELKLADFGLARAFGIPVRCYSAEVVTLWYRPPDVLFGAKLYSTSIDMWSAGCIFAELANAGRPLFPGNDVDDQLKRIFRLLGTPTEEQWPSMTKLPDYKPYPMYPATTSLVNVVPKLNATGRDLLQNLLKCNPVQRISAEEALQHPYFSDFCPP
Chain of CDK5/p25(h) (Q15078 99-307 partner limits assumed): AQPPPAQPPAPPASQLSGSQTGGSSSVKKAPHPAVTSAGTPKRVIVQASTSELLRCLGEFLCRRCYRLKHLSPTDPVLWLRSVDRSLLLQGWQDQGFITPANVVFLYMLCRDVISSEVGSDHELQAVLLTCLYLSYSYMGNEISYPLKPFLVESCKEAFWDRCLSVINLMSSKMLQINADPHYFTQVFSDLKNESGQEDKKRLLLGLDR
Chain of Flt1(h) (P17948 27-1338): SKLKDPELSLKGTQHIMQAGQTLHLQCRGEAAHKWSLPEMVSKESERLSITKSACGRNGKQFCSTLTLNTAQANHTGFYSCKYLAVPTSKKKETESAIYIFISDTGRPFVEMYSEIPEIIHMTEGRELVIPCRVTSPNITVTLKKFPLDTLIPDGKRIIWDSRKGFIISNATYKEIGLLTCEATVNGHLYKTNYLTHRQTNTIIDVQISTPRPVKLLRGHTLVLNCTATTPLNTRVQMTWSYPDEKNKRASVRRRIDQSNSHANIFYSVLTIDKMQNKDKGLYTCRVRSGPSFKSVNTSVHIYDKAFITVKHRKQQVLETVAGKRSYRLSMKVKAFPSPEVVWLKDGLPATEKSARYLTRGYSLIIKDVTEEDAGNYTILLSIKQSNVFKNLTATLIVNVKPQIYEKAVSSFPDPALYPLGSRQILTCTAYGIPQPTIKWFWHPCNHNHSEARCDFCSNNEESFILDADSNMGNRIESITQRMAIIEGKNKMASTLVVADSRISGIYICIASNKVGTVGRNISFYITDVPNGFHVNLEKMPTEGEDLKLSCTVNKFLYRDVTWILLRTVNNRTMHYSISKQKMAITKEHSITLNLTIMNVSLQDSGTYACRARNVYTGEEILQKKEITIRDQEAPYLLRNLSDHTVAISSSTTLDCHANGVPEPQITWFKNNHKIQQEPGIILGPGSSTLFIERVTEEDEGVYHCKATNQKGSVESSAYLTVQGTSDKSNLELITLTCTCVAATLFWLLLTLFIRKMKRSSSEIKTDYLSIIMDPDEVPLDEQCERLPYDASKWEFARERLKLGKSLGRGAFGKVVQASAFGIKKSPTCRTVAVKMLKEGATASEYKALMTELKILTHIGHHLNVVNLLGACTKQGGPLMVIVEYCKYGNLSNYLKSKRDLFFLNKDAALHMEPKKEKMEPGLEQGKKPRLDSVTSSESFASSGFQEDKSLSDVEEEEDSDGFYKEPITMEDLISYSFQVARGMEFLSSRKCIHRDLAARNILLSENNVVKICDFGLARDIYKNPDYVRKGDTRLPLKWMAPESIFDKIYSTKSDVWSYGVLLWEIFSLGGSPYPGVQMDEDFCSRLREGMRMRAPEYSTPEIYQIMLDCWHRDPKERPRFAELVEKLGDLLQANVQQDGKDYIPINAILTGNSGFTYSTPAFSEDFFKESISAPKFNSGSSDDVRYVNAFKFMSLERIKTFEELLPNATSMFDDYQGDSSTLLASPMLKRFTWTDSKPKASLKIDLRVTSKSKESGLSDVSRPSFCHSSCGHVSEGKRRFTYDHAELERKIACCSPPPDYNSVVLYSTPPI
Chain of CDK7/cyclinH/MAT1(h) (P50613 whole entry): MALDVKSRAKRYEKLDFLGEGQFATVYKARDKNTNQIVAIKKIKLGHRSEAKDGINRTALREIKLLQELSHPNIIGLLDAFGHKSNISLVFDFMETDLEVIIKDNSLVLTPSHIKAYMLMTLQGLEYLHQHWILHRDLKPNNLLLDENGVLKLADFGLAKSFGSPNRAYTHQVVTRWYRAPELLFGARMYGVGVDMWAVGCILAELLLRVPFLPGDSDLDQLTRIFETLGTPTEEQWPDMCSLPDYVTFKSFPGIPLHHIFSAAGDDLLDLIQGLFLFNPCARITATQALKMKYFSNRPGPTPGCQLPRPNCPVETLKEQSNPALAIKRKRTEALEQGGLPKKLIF
Chain of CDK7/cyclinH/MAT1(h) (P51946 whole entry partner): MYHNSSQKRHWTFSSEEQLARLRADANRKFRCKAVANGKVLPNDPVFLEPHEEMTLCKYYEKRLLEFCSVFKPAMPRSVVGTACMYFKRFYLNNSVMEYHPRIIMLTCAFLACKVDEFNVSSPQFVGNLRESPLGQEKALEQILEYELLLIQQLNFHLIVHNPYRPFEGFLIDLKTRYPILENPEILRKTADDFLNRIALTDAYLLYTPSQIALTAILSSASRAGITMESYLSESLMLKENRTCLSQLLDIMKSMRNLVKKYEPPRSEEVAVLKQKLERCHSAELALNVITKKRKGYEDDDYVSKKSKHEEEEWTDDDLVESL
Chain of CDK7/cyclinH/MAT1(h) (P51948 whole entry partner): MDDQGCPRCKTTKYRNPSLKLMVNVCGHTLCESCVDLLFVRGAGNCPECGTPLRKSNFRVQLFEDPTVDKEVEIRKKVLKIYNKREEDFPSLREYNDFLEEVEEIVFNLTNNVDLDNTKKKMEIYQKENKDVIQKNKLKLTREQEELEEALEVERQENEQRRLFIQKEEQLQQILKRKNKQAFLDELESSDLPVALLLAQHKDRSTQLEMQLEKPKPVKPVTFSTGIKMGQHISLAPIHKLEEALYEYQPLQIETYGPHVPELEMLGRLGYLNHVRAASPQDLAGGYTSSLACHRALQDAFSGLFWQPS

| remaining activity at 2.5 µM (CDK5/p25(h)) | remaining activity at 2.5 µM (CDK7/cyclinH/MAT1(h)) | remaining activity at 2.5 µM (EGFR(L861Q)(h)) | remaining activity at 2.5 µM (Flt1(h)) | remaining activity at 2.5 µM (Rsk3(h)) | remaining activity at 2.5 µM (SGK(h)) | SMILES |
| --- | --- | --- | --- | --- | --- | --- |
| 77% | 72% | 94% | 78% | 89% | 50% | CN1CCCC1CCNC(=O)c1cn2c3c(c(N4CCC(c5cnccn5)C4)c(F)cc3c1=O)Oc1cc3ccccc3cc1-2 (stereo not drawn) [Compound A-1] |
| 99% | 95% | 109% | 106% | 107% | 103% | CC(=O)N1CCN(c2ccc3c(=O)c(C(=O)NCCN4CCCC4)c4n(C)c5ccccc5n4c3n2)CC1 [Compound B-1] |
